Patent US9278058B2, “Melanin production inhibitor” (Shiseido Company, Ltd., priority 2012, dated 2016)

Legend:
[1] = tested on: Mouse B16 melanoma cells; assay: Melanin formation inhibition test; format: cell-based; settings: for Ratio of Amount of Melanin (%): 3 days, solvent-only group = 100
Protocol: As will be described in detail in the subsequent examples, screening for aromatic components of the melanin formation inhibitor was carried out by allowing various candidate aromatics to act on B16 melanoma, and evaluating cytotoxicity and the ratio of the amount of melanin (%) in comparison with a control (addition of solvent only). Mouse B16 melanoma cells were disseminated in a 6-well plate at 100,000 cells/well. On the following day, a test substance solution (solvent: ethyl alcohol) was added and used in a cell proliferation test and melanin formation inhibition test. A nature identical synthetic aromatic in the form of phenylethyl cinnamate (Toyotama International Inc.) was used for the test substance, and it was used in the tests indicated below. The medium was aspirated off 3 days after addition of test substance, and after washing using a buffer (50 mM phosphate buffer, pH 6.8), 1 M NaOH solution was added to lyse the cells followed by measurement of absorbance at 475 nm. The ratio of the amount of melanin (%) of a test substance addition group based on a value of 100 for a test substance non-addition group (addition of solvent only) was calculated using that value as a relative value of the amount of melanin. A lower value for the ratio of the amount of melanin means higher melanin formation inhibitory effects.

[2] = tested on: Mouse B16 melanoma cells; assay: Cell proliferation test (alamar blue); format: cell-based; settings: for No. of Cells (%): 3 days, solvent-only group = 100
Protocol: As will be described in detail in the subsequent examples, screening for aromatic components of the melanin formation inhibitor was carried out by allowing various candidate aromatics to act on B16 melanoma, and evaluating cytotoxicity and the ratio of the amount of melanin (%) in comparison with a control (addition of solvent only). Mouse B16 melanoma cells were disseminated in a 6-well plate at 100,000 cells/well. On the following day, a test substance solution (solvent: ethyl alcohol) was added and used in a cell proliferation test and melanin formation inhibition test. A nature identical synthetic aromatic in the form of phenylethyl cinnamate (Toyotama International Inc.) was used for the test substance, and it was used in the tests indicated below. After aspirating off the medium 3 days after adding the test substance solution, 1 ml of EMEM medium containing 10% alamar blue solution was added and allowed to react at 37° C. 30 minutes later, 100 μl were transferred to a […] followed by measurement of fluorescence at an excitation wavelength of 544 nm and measurement wavelength of 590 nm. The ratio of the number of cells (% number of cells) of a test substance addition group based on a value of 100 for a test substance non-addition group (addition of solvent only) was calculated by using that value as a relative value of the number of viable cells. A higher value for % number of cells means a lower level of cytotoxicity.

[3] = test substance final concentration 1 ppm
[4] = test substance final concentration 2 ppm

SMILES: O=C(/C=C/c1ccccc1)OCCc1ccccc1 [Phenylethyl Cinnamate, 2-Phenylethyl 3-phenyl • propenoate]
- melanin formation inhibitory effects (in words) ([1]; summary of Table 1 results): superior melanin formation inhibitory effects
- Ratio of Amount of Melanin (%) [1, 3]: 82%
- Ratio of Amount of Melanin (%) [1, 4]: 74%
- cytotoxicity (in words) ([2]; summary of Table 1 results): hardly any cytotoxicity
- No. of Cells (%) [2, 3]: 94%
- No. of Cells (%) [2, 4]: 92%
